{"source": "patent US8822491B2", "about": "“Methods and compositions for treating β-thalassemia and sickle cell disease” (Academia Sinica, priority 2011, dated 2014)", "assay_type_in_all_cases": "cell-based", "key": {"c-Myb": {"test_system": "c-Myb", "test": "Real-time RT-PCR of c-Myb expression in primary human erythroid cultures", "settings": "different concentrations of STO-609, 3 days, FIG. 7D", "experimental": "Dosage effects of STO-609 on the proliferation and γ/β globin gene expression of differentiated human erythroid progenitor cells were analyzed as described for compounds A-F. The differentiated primary cultured erythroid cells were treated with different concentrations of STO-609 for 3 days. (A) Relative induction of β (white bars) and γ globin mRNAs (black bars) was determined by real time RT-PCR analysis. The proliferation curve of the cells is shown with the mock control being 100%. (B) Relative expression levels of NF-E4 were determined by real time RT-PCR analysis and shown by the grey bars. (C) Relative expression levels of Bcl11a in response to treatments with different concentrations of STO-609 are shown (white bars). (D) Relative expression levels of c-Myb in cells treated with different concentrations of STO-609 are shown (black bars). The mock control is set as 1. […]\n(§1) Total RNAs were isolated with use of the RNAspin Mini kit (GE Healthcare). cDNA synthesis was carried out using SuperScript II reverse transcriptase (Invitrogen). Quantitative RT-PCR was performed using the SYBR Green PCR Master Mix (Applied Biosystems) and ABI 7500 real-time System. All data were analyzed after normalization to the expression level of the mouse or human […] gene."}, "γ globin mRNA": {"test_system": "γ globin mRNA", "test": "Real time RT-PCR of γ globin mRNA in primary human erythroid cultures", "set-up": "expression level of the fetal γ globin gene: dose or concentration left out as unconfirmed", "experimental": "(§2) Mouse erythroleukemic (MEL) cells, an adult erythroid cell line (Friend, et al. (1971) Proc Natl Acad Sci USA 68:378-82), were maintained in DMEM medium (Gibco) supplemented with 10% FBS and 1% penicillin-streptomycin, in 37° C. chamber under a 5% CO2 humidified atmosphere. For establishing stable cell lines, transfection of the reporter pmLAR-Gp-DsRed-Bp-d2EGFP into MEL cells was carried out using the Neon™ transfection system (Invitrogen). 2×10^6 MEL cells were transfected with 5 μg of the plasmid. Following microporation, the MEL cells were seeded in 10 ml antibiotics-free DMEM for 24 hrs and selected with […] of neomycin for one month. The primary human erythroid culture was initiated by maintaining the purified mononuclear cells in SFEM medium with 1× cc100 cytokine mix (StemSpan) for 7 days. The cells were then kept in the differentiation medium (SFEM with 20 ng/ml SCF, 1 U/ml EPO, 5 ng/ml IL-3, 2 micromolar dexamethasone) for another 7 days at a density of 0.1−1×10^6 cells/ml. The cells were treated with chemical compound at day 7 post-differentiation and then harvested for further analysis after 3 days of compound treatment.\nas §1"}, "β globin mRNA": {"test_system": "β globin mRNA", "test": "Real time RT-PCR of β globin mRNA in primary human erythroid cultures", "set-up": "dose or concentration left out as unconfirmed", "settings": "STO-609, 3 days, FIG. 7A", "experimental": "as §2, with “The cells were treated with chemical compound at day 7 post-differentiation and then harvested for further analysis after 3 days of compound treatment.” left out\nas §1"}, "NF-E4": {"test_system": "NF-E4", "test": "Real-time RT-PCR of NF-E4 expression in primary human erythroid cultures", "settings": "different concentrations of STO-609, 3 days, FIG. 7B", "experimental": "(§3) Primary human erythroid cultures were treated with 0.25 μM of compound A, and the relative expression levels of different transcription factors were then determined by real-time RT-PCR analysis. The white bars indicate the expression levels of mock control set as 1. The black bars are the relative expression levels in compound A-treated cells.\n(§4) Mouse erythroleukemic (MEL) cells, an adult erythroid cell line (Friend, et al. (1971) Proc Natl Acad Sci USA 68:378-82), were maintained in DMEM medium (Gibco) supplemented with 10% FBS and 1% penicillin-streptomycin, in 37° C. chamber under a 5% CO2 humidified atmosphere. For establishing stable cell lines, transfection of the reporter pmLAR-Gp-DsRed-Bp-d2EGFP into MEL cells was carried out using the Neon™ transfection system (Invitrogen). 2×10^6 MEL cells were transfected with 5 μg of the plasmid. Following microporation, the MEL cells were seeded in 10 ml antibiotics-free DMEM for 24 hrs and selected with […] of neomycin for one month. […]\nas §1"}, "Bcl11a": {"test_system": "Bcl11a", "test": "Real-time RT-PCR of Bcl11a expression in primary human erythroid cultures", "settings": "different concentrations of STO-609, 3 days, FIG. 7C", "experimental": "as §3, §4, §1"}, "[1]": {"test_system": "human erythroid progenitor cells", "test": "Cell proliferation (alamar Blue) of differentiated primary human erythroid cells", "settings": "for IC50: Erythroid progenitor cell, 72 h, read-out: IC50 (concentration at which the cell proliferation rate is reduced by 50%)", "experimental": "FIG. 3 illustrates induction of the endogenous globin genes in the primary culture of human erythroid progenitor cells by compound A. (A) Dosage effect of compound A in the differentiated human erythroid progenitor cells. The differentiated primary cultured cells were treated with different concentrations of compound A for 3 days. Total mRNA was extracted, and relative induction of the β and γ globin mRNAs was determined by real time RT-PCR analysis. The cell proliferation abilities were determined with use of alamar Blue reagent (mock control as 100%). The white bars indicated the relative expression levels of β-globin. The gray bars represent the relative levels of γ-globin mRNA. (B) Comparison of γ and β globin gene expression patterns in primary erythroid cultured cells treated with different fetal globin inducing agents. […] The total RNAs were then isolated for real time RT-PCR analysis. Relative induction of the β globin gene (white bars) and the γ globin gene (grey bars) was then determined.\nIC50 values are the concentrations of the individual compounds at which the cell proliferation rates are reduced by 50%.\nas §2"}, "[2]": {"test_system": "mouse embryonic εy globin mRNA", "test": "Real-time RT-PCR of endogenous embryonic globin mRNA in MEL cells", "experimental": "5×10^4 MEL cells carrying the dual fluorescence reporter were seeded on optical Packard 96-well view plates, treated with […] of the individual compound for 3 days, and primary screened for their DsRed intensity with use of the Wallac Victor3 1420 multilabel counter (Ex: 550/9; Em: 620). The secondary screenings were performed using a digital image detector, Cellomics Arrayscan 3.0 system, which doubly confirmed the intracellular DsRed fluorescence induced by the compound treatment. The endogenous globin gene expression patterns in the positive MEL cells from the primary and secondary screens as well as in compound-treated primary human erythroid cultures were subsequently identified by real time RT-PCR analysis.\nas §1"}, "[3]": {"settings": "differentiated human primary erythroid cells, 3 days"}, "[4]": {"settings": "different concentrations of compound A, 3 days, FIG. 3A"}}, "note": "Like-named read-outs stand apart in the source and are kept apart here.", "data": [{"smiles": "CC(=O)O.O=C(O)c1ccc2c3c1cccc3c(=O)n1c3ccccc3nc21", "note": "[STO-609, 7-oxo-7H-benzimidazo[2,1-a]benz[de]isoquinoline-3-carboxylic acid acetate]", "values": [{"measurement": "transcript of c-Myb", "setting": "c-Myb", "value": "significantly reduced"}, {"measurement": "concentration at which the fetal γ globin gene expression was elevated", "setting": "γ globin mRNA; STO-609, 3 days, FIG. 7A", "value": "≥ 50", "unit": "µM"}, {"measurement": "expression level of the fetal γ globin gene", "setting": "γ globin mRNA; STO-609, 3 days, FIG. 7A", "value": "elevated"}, {"measurement": "ability to induce fetal γ globin expression", "setting": "γ globin mRNA; survey of compounds with the benzo[de]benzo[4,5]imidazo[2,1-a]isoquinolin-7-one core", "value": "displays the fetal γ globin-inducting capability"}, {"measurement": "expression level of the adult β globin gene (elevated?)", "setting": "β globin mRNA", "value": "but not the adult β globin"}, {"measurement": "transcription of the γ globin gene activator NF-E4", "setting": "NF-E4", "value": "up-regulation"}, {"measurement": "expression level of the γ globin gene repressor Bcl11a", "setting": "Bcl11a", "value": "down-regulated"}]}, {"smiles": "O=C(O)c1ccc(C(=O)O)c2c(-c3ccc4c(=O)n5c6ccccc6nc5c5ccc(C(=O)O)c3c45)ccc(C(=O)O)c12", "note": "[compound A, 8-(3-Carboxy-7-oxo-7H-benzo[de]benzo[4,5]imidazo[2,1-a]isoquinolin-4-yl)-naphthalene-1,4,5-tricarboxylic acid]", "values": [{"measurement": "IC50", "setting": "[1]; [3]", "value": 0.2, "unit": "µM"}, {"measurement": "proliferation rates of the cells", "setting": "[1]; [4]", "value": "in reverse relationship with the concentration of compound A"}, {"measurement": "γ-globin induction fold compared to TSA, hydroxyurea and sodium butyrate", "setting": "γ globin mRNA; compound A […] vs TSA 0.33 μM, HU 100 μM, NaB 0.5 mM, 3 days, FIG. 3B", "value": "highest γ-globin induction fold"}, {"measurement": "relative expression level of the γ globin gene as a function of concentration", "setting": "γ globin mRNA; [4]", "value": "significantly increased"}, {"measurement": "induction of endogenous mouse embryonic εy globin mRNA expression level", "setting": "[2]", "value": "more than 10 fold"}]}, {"smiles": "O=c1c2cccc3cccc(c32)c2nc3ccccc3n12", "note": "[compound B, Benzo[de]benzo[4,5]imidazo[2,1-a]isoquinolin-7-one]", "values": [{"measurement": "IC50", "setting": "[1]; [3]", "value": 21.8, "unit": "µM"}]}, {"smiles": "O=c1c2cccc3c(Cl)ccc(c32)c2nc3ccccc3n12", "note": "[compound C, 3-Chloro-benzo[de]benzo[4,5]imidazo[2,1-a]isoquinolin-7-one]", "values": [{"measurement": "IC50", "setting": "[1]; [3]", "value": 75.2, "unit": "µM"}]}, {"smiles": "O=C(O)c1ccc2c(=O)n3c4ccccc4nc3c3ccc(C(=O)O)c1c23", "note": "[compound F, 7-Oxo-7H-benzo[de]benzo[4,5]imidazo[2,1-a]isoquinoline-3,4-dicarboxylic acid]", "values": [{"measurement": "IC50", "setting": "[1]; [3]", "value": 103, "unit": "µM"}]}, {"smiles": "NC(=O)NO", "note": "[hydroxyurea]", "values": [{"measurement": "IC50", "setting": "[1]; [3]", "value": 146, "unit": "µM"}]}, {"smiles": "CCCC(=O)[O-].[Na+]", "note": "[sodium butyrate]", "values": [{"measurement": "IC50", "setting": "[1]; Homo sapiens", "value": 222, "unit": "µM"}]}]}
